Measurements taken from PMC12567909 (Veterinary Sciences, 2025).
Where two headings read alike, the source gives them in different places.

Columns and labels:
[1] = biological target: T1, DPV pUL15FL (full-length pUL15) (anatid alphaherpesvirus 1, UniProt C6ZD26); assay type: biochemical
T1 construct: gene UL15

[2] = biological target: T2, pUL15N (N-terminus domain of DPV pUL15) (anatid alphaherpesvirus 1, UniProt C6ZD26); settings: 1 mM ATP, 2 µM protein, 2 mM MgCl2, 50 mM NaCl, pH 7.5, 37 °C
T2 construct: gene UL15

| SMILES | malachite green phosphate release [1] | malachite green phosphate release ([1]; 1 mM ATP, 2 mM MgCl2, 50 mM NaCl, pH 7.5, 37 °C) | malachite green phosphate release [2] |
| --- | --- | --- | --- |
| Nc1ncnc2c1ncn2[C@@H]1O[C@H](COP(=O)(O)OP(=O)(O)O)[C@@H](O)[C@H]1O [ADP] | DPV pUL15FL hydrolyzes both ATP and ADP |  |  |
| Nc1ncnc2c1ncn2[C@@H]1O[C@H](COP(=O)(O)OP(=O)(O)OP(=O)(O)O)[C@@H](O)[C@H]1O [ATP] |  | DPV pUL15FL hydrolyzes both ATP and ADP | the pUL15N exhibited ATPase activity like pUL15FL, whereas pUL15C did not |
